According to US8299048B2, “Hexahydrocyclopentyl[f]indazole sulfonamides and derivatives thereof as selective glucocorticoid receptor modulators” (Merck Sharp & Dohme Corp., priority 2008, dated 2012):

Experiments:
[1] = target: T1, human GR (Homo sapiens, UniProt P04150); assay: Trans-Activation Modulation of Glucocorticoid Receptor (GRAMMER), MMTV-LUC reporter, agonist mode; format: cell-based; set-up: endogenous in cells; details: for Emax: A549, A549 cells, maximum activity, read-out: Transactivation A549 Cells GRAMMER Emax; for EC50: A549 cells, inflection point, read-out: Transactivation A549 Cells GRAMMER IP
T1 sequence (P04150 1-777): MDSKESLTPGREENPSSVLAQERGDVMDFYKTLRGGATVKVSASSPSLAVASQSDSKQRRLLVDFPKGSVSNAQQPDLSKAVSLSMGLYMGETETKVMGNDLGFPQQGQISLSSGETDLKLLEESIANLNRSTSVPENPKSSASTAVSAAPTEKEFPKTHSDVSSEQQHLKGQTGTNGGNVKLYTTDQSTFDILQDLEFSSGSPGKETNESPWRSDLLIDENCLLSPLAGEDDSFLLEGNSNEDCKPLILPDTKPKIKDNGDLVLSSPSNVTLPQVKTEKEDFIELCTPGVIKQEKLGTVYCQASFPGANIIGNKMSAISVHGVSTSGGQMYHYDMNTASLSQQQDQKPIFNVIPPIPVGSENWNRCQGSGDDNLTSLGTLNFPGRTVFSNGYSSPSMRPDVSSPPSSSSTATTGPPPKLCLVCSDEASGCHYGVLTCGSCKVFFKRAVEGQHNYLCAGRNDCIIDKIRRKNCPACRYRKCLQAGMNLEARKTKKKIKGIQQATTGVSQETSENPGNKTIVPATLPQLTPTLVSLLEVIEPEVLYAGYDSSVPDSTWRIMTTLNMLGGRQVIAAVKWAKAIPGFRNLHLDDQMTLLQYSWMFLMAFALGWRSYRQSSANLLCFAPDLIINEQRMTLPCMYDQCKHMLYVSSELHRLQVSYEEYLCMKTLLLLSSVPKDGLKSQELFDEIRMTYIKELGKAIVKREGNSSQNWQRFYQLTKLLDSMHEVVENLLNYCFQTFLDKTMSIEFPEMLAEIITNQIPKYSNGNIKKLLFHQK
Summary of the method: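 Readout is luciferase from a modified MMTV LTR promoter after 24 h compound exposure alongside 10 nM dexamethasone (100% activity reference), DMSO ≤1%.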

[2] = target: T1, human GR; assay: Transrepression Assay (GITAR), TNFα-β-lactamase reporter in U937 cells; format: cell-based; set-up: U937 cells contain an endogenous glucocorticoid receptor (GR); endogenous in cells; host or cells: U937 cells stably transfected with the TNF-alpha promoter/beta-lactamase reporter; details: for GITAR > GRAMM % SEP: GITAR Emax minus GRAMMER Emax; for EC50: U937 cells, inflection point, read-out: Transrepression U937 Cells GITAR IP
Summary of the method: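 First, U937 reporter cells (TNF-α promoter–β-lactamase, native GR) received compound for 30–45 min at 37 °C. Next, PMA (5 ng/ml) and LPS (100 ng/ml) final were added for about 18 hr. Finally, CCF2-AM loading gave the read-out, with 100 nM dexamethasone as 100%.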

[3] = U-937, U937 cells, maximum activity, read-out: Transrepression U937 Cells GITAR Emax
[4] = U-937, activity repressed by 100 nM dexamethasone alone set as 100%, read-out: maximal activity in the transrepression (GITAR) assay

| Compound | Emax [1] | EC50 [1] | GITAR > GRAMM % SEP [2] | EC50 [2] | Emax [2, 3] | Emax [2, 4] |
| --- | --- | --- | --- | --- | --- | --- |
| C[C@]12Cc3cnn(-c4ccc(F)cc4)c3C=C1CC[C@@H]2CN(CC1CC1)S(=O)(=O)c1ccccc1C(F)(F)F [Example 4, N-(cyclopropylmethyl)-N-{[(4αR,5S)-1-(4-fluorophenyl)-4α-methyl-1,4,4α,5,6,7-hexahydrocyclopenta[f]indazol-5-yl]methyl}-2-(trifluoromethyl)benzenesulfonamide] | 16.9% | 0.294 µM | 36.2% | 0.256 µM | 53.1% | > 5% |
| C[C@]12Cc3cnn(-c4ccc(F)cc4)c3C=C1CC[C@@H]2CN(CCO)S(=O)(=O)c1ccc(Oc2cccc(Cl)c2C#N)cc1 [Example 69, 4-(3-chloro-2-cyanophenoxy)-N-{[(4αR,5S)-1-(4-fluorophenyl)-4α-methyl-1,4,4α,5,6,7-hexahydrocyclopenta[f]indazol-5-yl]methyl}-N-(2-hydroxyethyl)benzenesulfonamide] | 12.6% | 0.852 µM | 22.2% | 2.54 µM | 34.8% | > 5% |
| C[C@]12Cc3cnn(-c4ccc(F)cc4)c3C=C1CC[C@@H]2CN(CCO)S(=O)(=O)Cc1ccccc1 [Example 75, N-{[(4αR,5S)-1-(4-fluorophenyl)-4α-methyl-1,4,4α,5,6,7-hexahydrocyclopenta[f]indazol-5-yl]methyl}-N-(2-hydroxyethyl)-1-phenylmethanesulfonamide] | 14.4% | 0.45 µM | 14.4% | 0.473 µM | 28.8% | > 5% |
| Cn1cc(S(=O)(=O)N(CCO)C[C@H]2CCC3=Cc4c(cnn4-c4ccc(F)cc4)C[C@@]32C)c(C(F)(F)F)n1 [Example 65, N-{[(4αR,5S)-1-(4-fluorophenyl)-4α-methyl-1,4,4α,5,6,7-hexahydrocyclopenta[f]indazol-5-yl]methyl}-N-(2-hydroxyethyl)-1-methyl-3-(trifluoromethyl)-1H-pyrazole-4-sulfonamide] | 19.6% | 1.08 µM | 41.3% | 0.894 µM | 61% | > 5% |

The next lines start with the values.

| Emax [1] | EC50 [1] | GITAR > GRAMM % SEP [2] | EC50 [2] | Emax [2, 3] | Emax [2, 4] | Compound |
| --- | --- | --- | --- | --- | --- | --- |
| 19.7% | 0.442 µM | 66.3% | 0.799 µM | 86% | > 5% | C[C@]12Cc3cnn(-c4ccc(F)cc4)c3C=C1CC[C@@H]2CN(CCO)S(=O)(=O)c1ccccc1-c1ccccc1 [Example 84, N-{[(4αR,5S)-1-(4-fluorophenyl)-4α-methyl-1,4,4α,5,6,7-hexahydrocyclopenta[f]indazol-5-yl]methyl}-N-(2-hydroxyethyl)biphenyl-2-sulfonamide] |
| 6.9% | 0.568 µM | 52.6% | 1.32 µM | 59.5% | > 5% | Cc1nn(C)c(Cl)c1S(=O)(=O)N(CCO)C[C@H]1CCC2=Cc3c(cnn3-c3ccc(F)cc3)C[C@@]21C [Example 83, 5-chloro-N-{[(4αR,5S)-1-(4-fluorophenyl)-4α-methyl-1,4,4α,5,6,7-hexahydrocyclopenta[f]indazol-5-yl]methyl}-N-(2-hydroxyethyl)-1,3-dimethyl-1H-pyrazole-4-sulfonamide] |
| 43.9% | 0.423 µM | 31.6% | 0.412 µM | 75.5% | > 5% | COCCN(C[C@H]1CCC2=Cc3c(cnn3-c3ccc(F)cc3)C[C@@]21C)S(=O)(=O)c1ccccc1F [Example 94, 2-fluoro-N-{[(4αR,5S)-1-(4-fluorophenyl)-4α-methyl-1,4,4α,5,6,7-hexahydrocyclopenta[f]indazol-5-yl]methyl}-N-(2-methoxyethyl)benzenesulfonamide] |
